Species: Rattus norvegicus
Assay: Open TG-GATES - Regimen: Daily Repeat
Format: toxicity, organism-based, Sprague-Dawley
Parameters: regimen Daily Repeat, gender Male, age 6 weeks
Details: in vivo, po, 10 mg/kg, route gavage, dose level Low; for APTT / Bas / Eos / Fbg / Hb / Ht / Lym / MCH / MCHC / MCV / Mono / Neu / PT / Plat / RBC / Ret / WBC: tissue Blood; for KIDNEY_L / KIDNEY_R / KIDNEY_TOTAL: tissue Kidney; for LIVER: tissue Liver; for A/G / ALP / ALT / AST / BUN / CRE / Ca / Cl / DBIL / GLC / IP / K / LDH / Na / PL / RALB / TBIL / TC / TG / TP / gamma-GTP: tissue Plasma

NC(=O)N/N=C/c1ccc([N+](=O)[O-])o1 [NITROFURAZONE]
TERMINAL_BW (72 h, time 3 day): 217.9 g
APTT (72 h, time 3 day): 14.6 s
Bas (72 h, time 3 day): 0.2%
Eos (72 h, time 3 day): 0.8%
Fbg (72 h, time 3 day): 265.6 mg/dL
Hb (72 h, time 3 day): 12.9 g/dL
Ht (72 h, time 3 day): 39.6%
Lym (72 h, time 3 day): 77.8%
MCH (72 h, time 3 day): 22.1 pg
MCHC (72 h, time 3 day): 32.6%
MCV (72 h, time 3 day): 67.8 fL
Mono (72 h, time 3 day): 3.2%
Neu (72 h, time 3 day): 17.8%
PT (72 h, time 3 day): 14.4 s
Plat (72 h, time 3 day): 118.7 x10_4/uL
RBC (72 h, time 3 day): 584.8 x10_4/ul
Ret (72 h, time 3 day): 9.3%
WBC (72 h, time 3 day): 97.1 x10_2/uL
KIDNEY_L (72 h, time 3 day): 1 g
KIDNEY_R (72 h, time 3 day): 1 g
KIDNEY_TOTAL (72 h, time 3 day): 1.9 g
LIVER (72 h, time 3 day): 10.7 g
A/G (72 h, time 3 day): 0.9
ALP (72 h, time 3 day): 1665.4 IU/L
ALT (72 h, time 3 day): 49 IU/L
AST (72 h, time 3 day): 74.6 IU/L
BUN (72 h, time 3 day): 15 mg/dL
CRE (72 h, time 3 day): 0.2 mg/dL
Ca (72 h, time 3 day): 11.3 mg/dL
Cl (72 h, time 3 day): 105.6 meq/L
DBIL (72 h, time 3 day): 0.018 mg/dL
GLC (72 h, time 3 day): 189 mg/dL
IP (72 h, time 3 day): 7.9 mg/dL
K (72 h, time 3 day): 4.3 meq/L
LDH (72 h, time 3 day): 69.6 IU/L
Na (72 h, time 3 day): 141.4 meq/L
PL (72 h, time 3 day): 151.8 mg/dL
RALB (72 h, time 3 day): 2.6 g/dL
TBIL (72 h, time 3 day): 0.048 mg/dL
TC (72 h, time 3 day): 85 mg/dL
TG (72 h, time 3 day): 97.8 mg/dL
TP (72 h, time 3 day): 5.5 g/dL
gamma-GTP (72 h, time 3 day): 1 IU/L
TERMINAL_BW ([…], time 7 day): 257.3 g
TERMINAL_BW ([…], time 14 day): 318.7 g
TERMINAL_BW ([…], time 28 day): 442.9 g
APTT ([…], time 7 day): 16.7 s
Bas ([…], time 7 day): 0%
Eos ([…], time 7 day): 1%
Fbg ([…], time 7 day): 257 mg/dL
Hb ([…], time 7 day): 13.2 g/dL
Ht ([…], time 7 day): 39.3%
Lym ([…], time 7 day): 79.2%
MCH ([…], time 7 day): 21.5 pg
MCHC ([…], time 7 day): 33.7%
MCV ([…], time 7 day): 64 fL
Mono ([…], time 7 day): 2.4%
Neu ([…], time 7 day): 16.6%
PT ([…], time 7 day): 14.3 s
Plat ([…], time 7 day): 113.7 x10_4/uL
RBC ([…], time 7 day): 615 x10_4/ul
Ret ([…], time 7 day): 7.1%
WBC ([…], time 7 day): 83.6 x10_2/uL
APTT ([…], time 14 day): 15.2 s
Bas ([…], time 14 day): 0.2%
Eos ([…], time 14 day): 0.8%
Fbg ([…], time 14 day): 353 mg/dL
Hb ([…], time 14 day): 13.5 g/dL
Ht ([…], time 14 day): 40.9%
Lym ([…], time 14 day): 80%
MCH ([…], time 14 day): 20.2 pg
MCHC ([…], time 14 day): 33%
MCV ([…], time 14 day): 61.3 fL
Mono ([…], time 14 day): 2%
Neu ([…], time 14 day): 14.4%
PT ([…], time 14 day): 14.7 s
Plat ([…], time 14 day): 111.7 x10_4/uL
RBC ([…], time 14 day): 666.6 x10_4/ul
Ret ([…], time 14 day): 4.5%
WBC ([…], time 14 day): 106.9 x10_2/uL
APTT ([…], time 28 day): 16.4 s
Bas ([…], time 28 day): 0%
Eos ([…], time 28 day): 1.4%
Fbg ([…], time 28 day): 292.6 mg/dL
Hb ([…], time 28 day): 14.7 g/dL
Ht ([…], time 28 day): 43.8%
Lym ([…], time 28 day): 76.4%
MCH ([…], time 28 day): 19.3 pg
MCHC ([…], time 28 day): 33.6%
MCV ([…], time 28 day): 57.6 fL
Mono ([…], time 28 day): 2.2%
Neu ([…], time 28 day): 19.4%
PT ([…], time 28 day): 14.8 s
Plat ([…], time 28 day): 94.4 x10_4/uL
RBC ([…], time 28 day): 761 x10_4/ul
Ret ([…], time 28 day): 3%
WBC ([…], time 28 day): 94.8 x10_2/uL
KIDNEY_L ([…], time 7 day): 1.1 g
KIDNEY_R ([…], time 7 day): 1.1 g
KIDNEY_TOTAL ([…], time 7 day): 2.2 g
KIDNEY_L ([…], time 14 day): 1.3 g
KIDNEY_R ([…], time 14 day): 1.2 g
KIDNEY_TOTAL ([…], time 14 day): 2.5 g
KIDNEY_L ([…], time 28 day): 1.5 g
KIDNEY_R ([…], time 28 day): 1.5 g
KIDNEY_TOTAL ([…], time 28 day): 3.1 g
LIVER ([…], time 7 day): 12.9 g
LIVER ([…], time 14 day): 15.3 g
LIVER ([…], time 28 day): 18.6 g
A/G ([…], time 7 day): 0.9
ALP ([…], time 7 day): 1835.8 IU/L
ALT ([…], time 7 day): 44.6 IU/L
AST ([…], time 7 day): 70.8 IU/L
BUN ([…], time 7 day): 15.6 mg/dL
CRE ([…], time 7 day): 0.2 mg/dL
Ca ([…], time 7 day): 11.1 mg/dL
Cl ([…], time 7 day): 104 meq/L
DBIL ([…], time 7 day): 0.016 mg/dL
GLC ([…], time 7 day): 184 mg/dL
IP ([…], time 7 day): 7.7 mg/dL
K ([…], time 7 day): 3.7 meq/L
LDH ([…], time 7 day): 67 IU/L
Na ([…], time 7 day): 141.4 meq/L
PL ([…], time 7 day): 156.4 mg/dL
RALB ([…], time 7 day): 2.6 g/dL
TBIL ([…], time 7 day): 0.05 mg/dL
TC ([…], time 7 day): 83.4 mg/dL
TG ([…], time 7 day): 102 mg/dL
TP ([…], time 7 day): 5.6 g/dL
gamma-GTP ([…], time 7 day): 1 IU/L
A/G ([…], time 14 day): 0.8
ALP ([…], time 14 day): 1653.4 IU/L
ALT ([…], time 14 day): 47.4 IU/L
AST ([…], time 14 day): 83.6 IU/L
BUN ([…], time 14 day): 17.8 mg/dL
CRE ([…], time 14 day): 0.2 mg/dL
Ca ([…], time 14 day): 10.9 mg/dL
Cl ([…], time 14 day): 105 meq/L
DBIL ([…], time 14 day): 0.014 mg/dL
GLC ([…], time 14 day): 185.8 mg/dL
IP ([…], time 14 day): 7.3 mg/dL
K ([…], time 14 day): 4.1 meq/L
LDH ([…], time 14 day): 92.4 IU/L
Na ([…], time 14 day): 142.4 meq/L
PL ([…], time 14 day): 156.2 mg/dL
RALB ([…], time 14 day): 2.7 g/dL
TBIL ([…], time 14 day): 0.044 mg/dL
TC ([…], time 14 day): 77.8 mg/dL
TG ([…], time 14 day): 123.8 mg/dL
TP ([…], time 14 day): 5.8 g/dL
gamma-GTP ([…], time 14 day): 1.4 IU/L
A/G ([…], time 28 day): 0.8
ALP ([…], time 28 day): 1381.2 IU/L
ALT ([…], time 28 day): 39.4 IU/L
AST ([…], time 28 day): 64 IU/L
BUN ([…], time 28 day): 17.4 mg/dL
CRE ([…], time 28 day): 0.2 mg/dL
Ca ([…], time 28 day): 10.8 mg/dL
Cl ([…], time 28 day): 103.6 meq/L
DBIL ([…], time 28 day): 0.014 mg/dL
GLC ([…], time 28 day): 187.2 mg/dL
IP ([…], time 28 day): 6.6 mg/dL
K ([…], time 28 day): 3.6 meq/L
LDH ([…], time 28 day): 47.8 IU/L
Na ([…], time 28 day): 143 meq/L
PL ([…], time 28 day): 154.2 mg/dL
RALB ([…], time 28 day): 2.7 g/dL
TBIL ([…], time 28 day): 0.062 mg/dL
TC ([…], time 28 day): 78 mg/dL
TG ([…], time 28 day): 133.6 mg/dL
TP ([…], time 28 day): 6.2 g/dL
gamma-GTP ([…], time 28 day): 1 IU/L
